According to publication PMC7180948, “New Insights into 4-Anilinoquinazolines as Inhibitors of Cardiac Troponin I–Interacting Kinase (TNNi3K)” (Molecules, 2020):

Experiments:
Assay in all cases: biochemical
Parameters in all cases: KINOMEscan competition binding panel (Eurofins DiscoverX), single concentration, % inhibition
Details in all cases: read-out: 7 at 1 µM % inhibition
ALK = ALK (Homo sapiens, UniProt Q9UM73)
Summary of the method: (§1)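 Binding was profiled in the KINOMEscan panel of over 400 human kinases, with each compound tested at a single concentration of 1 µM to map selectivity.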

YANK2 = target: T1, YANK2 (Homo sapiens, UniProt Q9NY57)
T1 construct: gene STK32B
Summary of the method: as §1

FLT3(D835V) = FLT3(D835V) (Homo sapiens, UniProt P36888, D835V)
Summary of the method: as §1

PFTK1 = target: T2, PFTK1 (Homo sapiens, UniProt O94921)
T2 construct: gene CDK14
Summary of the method: as §1

AAK1 = AAK1 (Homo sapiens, UniProt Q2M2I8)
Summary of the method: as §1

FYN = FYN (Homo sapiens, UniProt P06241)
Summary of the method: as §1

EGFR(E746-A750del) = EGFR(E746-A750del) (Homo sapiens, UniProt P00533, DEL746-750)
Summary of the method: as §1

FLT3(ITD) = FLT3(ITD) (Homo sapiens, UniProt P36888, ITD)
Summary of the method: as §1

MAP4K5 = MAP4K5 (Homo sapiens, UniProt Q9Y4K4)
Summary of the method: as §1

BRAF = BRAF (Homo sapiens, UniProt P15056)
Summary of the method: as §1

IKK-epsilon = target: T3, IKK-epsilon (Homo sapiens, UniProt Q14164)
T3 construct: gene IKBKE
Summary of the method: as §1

PIM3 = PIM3 (Homo sapiens, UniProt Q86V86)
Summary of the method: as §1

YSK4 = target: T4, YSK4 (Homo sapiens, UniProt Q56UN5)
T4 construct: gene MAP3K19
Summary of the method: as §1

PKMYT1 = PKMYT1 (Homo sapiens, UniProt Q99640)
Summary of the method: as §1

DDR1 = DDR1 (Homo sapiens, UniProt Q08345)
Summary of the method: as §1

MET(Y1235D) = MET(Y1235D) (Homo sapiens, UniProt P08581, Y1235D)
Summary of the method: as §1

MAP3K2 = MAP3K2 (Homo sapiens, UniProt Q9Y2U5)
Summary of the method: as §1

PRP4 = target: T5, PRP4 (Homo sapiens, UniProt Q13523)
T5 construct: gene PRPF4B
Summary of the method: as §1

TBK1 = TBK1 (Homo sapiens, UniProt Q9UHD2)
Summary of the method: as §1

ABL1-nonphosphorylated = target: T6, ABL1-nonphosphorylated (Homo sapiens, UniProt P00519)
T6 construct: nonphosphorylated
Summary of the method: as §1

CHEK1 = CHEK1 (Homo sapiens, UniProt O14757)
Summary of the method: as §1

RIOK3 = RIOK3 (Homo sapiens, UniProt O14730)
Summary of the method: as §1

[1] = target: T7, RSK3(Kin.Dom.1-N-terminal) (Homo sapiens, UniProt Q15349)
T7 construct: gene RPS6KA2; Kin.Dom.1-N-terminal
Summary of the method: as §1

TRKA = target: T8, TRKA (Homo sapiens, UniProt P04629)
T8 construct: gene NTRK1
Summary of the method: as §1

Chain of ALK (Q9UM73 whole entry): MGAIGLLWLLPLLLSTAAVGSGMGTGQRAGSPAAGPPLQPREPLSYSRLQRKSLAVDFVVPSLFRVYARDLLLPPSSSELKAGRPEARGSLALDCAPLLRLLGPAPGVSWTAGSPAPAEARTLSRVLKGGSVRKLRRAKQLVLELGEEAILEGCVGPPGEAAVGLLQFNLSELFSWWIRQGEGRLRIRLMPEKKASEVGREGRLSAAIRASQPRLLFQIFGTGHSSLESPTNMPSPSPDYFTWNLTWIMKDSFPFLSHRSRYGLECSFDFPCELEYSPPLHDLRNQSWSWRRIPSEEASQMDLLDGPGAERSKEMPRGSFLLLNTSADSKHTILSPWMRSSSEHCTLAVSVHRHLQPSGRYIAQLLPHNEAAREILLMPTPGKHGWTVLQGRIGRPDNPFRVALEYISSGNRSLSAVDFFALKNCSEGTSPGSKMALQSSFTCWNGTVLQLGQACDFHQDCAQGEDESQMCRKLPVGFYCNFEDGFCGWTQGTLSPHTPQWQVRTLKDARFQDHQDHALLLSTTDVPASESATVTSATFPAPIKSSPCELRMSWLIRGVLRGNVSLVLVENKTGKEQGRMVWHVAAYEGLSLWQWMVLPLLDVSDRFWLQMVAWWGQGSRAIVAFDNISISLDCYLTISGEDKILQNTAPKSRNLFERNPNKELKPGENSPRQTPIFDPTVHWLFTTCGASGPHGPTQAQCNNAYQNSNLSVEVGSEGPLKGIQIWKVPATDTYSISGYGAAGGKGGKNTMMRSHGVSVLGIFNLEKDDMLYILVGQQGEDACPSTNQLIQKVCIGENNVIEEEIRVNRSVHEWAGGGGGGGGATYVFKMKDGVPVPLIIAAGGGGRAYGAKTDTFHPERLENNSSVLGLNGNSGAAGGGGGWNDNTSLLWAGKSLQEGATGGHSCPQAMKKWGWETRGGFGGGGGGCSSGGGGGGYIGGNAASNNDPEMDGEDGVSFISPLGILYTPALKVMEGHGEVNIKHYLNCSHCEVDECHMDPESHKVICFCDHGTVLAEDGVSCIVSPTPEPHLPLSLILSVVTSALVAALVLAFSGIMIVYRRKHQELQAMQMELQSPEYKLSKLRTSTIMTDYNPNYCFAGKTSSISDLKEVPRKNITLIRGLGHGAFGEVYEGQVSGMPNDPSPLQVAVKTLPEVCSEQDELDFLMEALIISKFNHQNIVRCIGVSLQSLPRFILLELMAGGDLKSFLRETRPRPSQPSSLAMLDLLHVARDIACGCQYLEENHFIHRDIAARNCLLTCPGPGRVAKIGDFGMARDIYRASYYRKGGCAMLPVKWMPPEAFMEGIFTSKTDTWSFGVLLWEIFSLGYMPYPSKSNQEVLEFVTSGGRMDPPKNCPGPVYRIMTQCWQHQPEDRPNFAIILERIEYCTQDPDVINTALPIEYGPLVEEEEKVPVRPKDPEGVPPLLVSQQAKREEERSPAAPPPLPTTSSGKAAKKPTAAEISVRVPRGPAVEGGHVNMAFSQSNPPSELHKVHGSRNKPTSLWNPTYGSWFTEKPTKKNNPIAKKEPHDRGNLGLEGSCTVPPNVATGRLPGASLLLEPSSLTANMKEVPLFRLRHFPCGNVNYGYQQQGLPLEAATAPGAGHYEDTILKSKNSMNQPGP
Chain of CHEK1 (O14757 whole entry): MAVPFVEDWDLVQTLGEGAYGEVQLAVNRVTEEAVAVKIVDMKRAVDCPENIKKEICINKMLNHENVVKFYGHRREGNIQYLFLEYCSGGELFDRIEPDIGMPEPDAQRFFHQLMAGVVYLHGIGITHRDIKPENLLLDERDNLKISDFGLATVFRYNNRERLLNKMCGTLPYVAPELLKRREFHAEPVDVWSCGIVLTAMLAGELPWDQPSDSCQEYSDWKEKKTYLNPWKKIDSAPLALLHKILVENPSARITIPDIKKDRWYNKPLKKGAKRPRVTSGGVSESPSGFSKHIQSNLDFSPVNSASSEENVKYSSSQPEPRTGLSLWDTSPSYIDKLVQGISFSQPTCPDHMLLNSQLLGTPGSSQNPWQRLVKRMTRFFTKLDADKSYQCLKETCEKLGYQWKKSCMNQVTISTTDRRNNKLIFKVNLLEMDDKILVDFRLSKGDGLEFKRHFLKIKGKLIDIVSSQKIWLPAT
T7 sequence (Q15349 whole entry): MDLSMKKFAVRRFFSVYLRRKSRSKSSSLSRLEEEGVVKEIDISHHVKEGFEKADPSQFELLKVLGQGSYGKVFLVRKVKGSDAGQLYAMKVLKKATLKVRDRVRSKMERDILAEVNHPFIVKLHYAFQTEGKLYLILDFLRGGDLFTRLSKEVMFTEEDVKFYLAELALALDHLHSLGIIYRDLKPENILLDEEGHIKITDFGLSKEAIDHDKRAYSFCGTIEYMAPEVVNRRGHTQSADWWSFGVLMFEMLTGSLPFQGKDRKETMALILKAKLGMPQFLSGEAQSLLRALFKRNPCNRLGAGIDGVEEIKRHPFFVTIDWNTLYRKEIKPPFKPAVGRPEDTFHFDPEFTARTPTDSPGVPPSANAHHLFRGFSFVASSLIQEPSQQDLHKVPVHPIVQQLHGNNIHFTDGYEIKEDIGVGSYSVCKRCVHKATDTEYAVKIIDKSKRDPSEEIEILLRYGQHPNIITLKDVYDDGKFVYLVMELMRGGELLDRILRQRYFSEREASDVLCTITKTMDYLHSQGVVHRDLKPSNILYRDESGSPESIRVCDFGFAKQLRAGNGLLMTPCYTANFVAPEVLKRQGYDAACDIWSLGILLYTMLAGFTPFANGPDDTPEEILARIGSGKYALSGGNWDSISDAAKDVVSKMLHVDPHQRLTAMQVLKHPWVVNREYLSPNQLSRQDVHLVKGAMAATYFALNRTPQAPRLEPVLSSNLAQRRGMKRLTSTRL
T6 sequence (P00519 whole entry): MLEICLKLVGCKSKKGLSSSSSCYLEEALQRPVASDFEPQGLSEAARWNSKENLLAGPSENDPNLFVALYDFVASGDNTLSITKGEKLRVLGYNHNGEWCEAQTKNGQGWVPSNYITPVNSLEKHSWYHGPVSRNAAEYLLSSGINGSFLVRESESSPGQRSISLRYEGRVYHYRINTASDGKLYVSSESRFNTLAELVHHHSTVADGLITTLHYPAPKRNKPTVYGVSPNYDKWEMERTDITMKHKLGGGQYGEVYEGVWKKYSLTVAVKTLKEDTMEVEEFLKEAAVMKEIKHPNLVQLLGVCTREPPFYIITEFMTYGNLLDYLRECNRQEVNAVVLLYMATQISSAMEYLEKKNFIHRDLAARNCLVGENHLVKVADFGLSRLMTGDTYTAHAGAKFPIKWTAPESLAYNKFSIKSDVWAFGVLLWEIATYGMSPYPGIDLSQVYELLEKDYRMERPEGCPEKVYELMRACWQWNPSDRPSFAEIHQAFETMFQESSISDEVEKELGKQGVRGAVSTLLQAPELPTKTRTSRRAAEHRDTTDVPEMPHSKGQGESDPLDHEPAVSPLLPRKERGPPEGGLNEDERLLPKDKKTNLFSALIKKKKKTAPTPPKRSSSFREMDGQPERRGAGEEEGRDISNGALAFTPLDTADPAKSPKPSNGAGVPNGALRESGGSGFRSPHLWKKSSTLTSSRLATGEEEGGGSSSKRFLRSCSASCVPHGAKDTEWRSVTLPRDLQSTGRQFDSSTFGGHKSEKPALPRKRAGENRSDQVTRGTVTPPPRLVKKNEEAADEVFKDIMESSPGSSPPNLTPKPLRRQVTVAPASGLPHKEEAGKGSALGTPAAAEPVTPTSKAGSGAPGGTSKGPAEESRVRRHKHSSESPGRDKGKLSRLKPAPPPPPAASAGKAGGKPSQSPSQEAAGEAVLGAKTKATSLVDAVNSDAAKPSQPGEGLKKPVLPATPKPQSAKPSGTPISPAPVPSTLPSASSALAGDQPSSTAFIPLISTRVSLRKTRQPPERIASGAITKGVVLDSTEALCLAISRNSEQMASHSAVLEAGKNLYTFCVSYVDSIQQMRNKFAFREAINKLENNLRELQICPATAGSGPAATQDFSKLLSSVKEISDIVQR
Chain of DDR1 (Q08345 whole entry): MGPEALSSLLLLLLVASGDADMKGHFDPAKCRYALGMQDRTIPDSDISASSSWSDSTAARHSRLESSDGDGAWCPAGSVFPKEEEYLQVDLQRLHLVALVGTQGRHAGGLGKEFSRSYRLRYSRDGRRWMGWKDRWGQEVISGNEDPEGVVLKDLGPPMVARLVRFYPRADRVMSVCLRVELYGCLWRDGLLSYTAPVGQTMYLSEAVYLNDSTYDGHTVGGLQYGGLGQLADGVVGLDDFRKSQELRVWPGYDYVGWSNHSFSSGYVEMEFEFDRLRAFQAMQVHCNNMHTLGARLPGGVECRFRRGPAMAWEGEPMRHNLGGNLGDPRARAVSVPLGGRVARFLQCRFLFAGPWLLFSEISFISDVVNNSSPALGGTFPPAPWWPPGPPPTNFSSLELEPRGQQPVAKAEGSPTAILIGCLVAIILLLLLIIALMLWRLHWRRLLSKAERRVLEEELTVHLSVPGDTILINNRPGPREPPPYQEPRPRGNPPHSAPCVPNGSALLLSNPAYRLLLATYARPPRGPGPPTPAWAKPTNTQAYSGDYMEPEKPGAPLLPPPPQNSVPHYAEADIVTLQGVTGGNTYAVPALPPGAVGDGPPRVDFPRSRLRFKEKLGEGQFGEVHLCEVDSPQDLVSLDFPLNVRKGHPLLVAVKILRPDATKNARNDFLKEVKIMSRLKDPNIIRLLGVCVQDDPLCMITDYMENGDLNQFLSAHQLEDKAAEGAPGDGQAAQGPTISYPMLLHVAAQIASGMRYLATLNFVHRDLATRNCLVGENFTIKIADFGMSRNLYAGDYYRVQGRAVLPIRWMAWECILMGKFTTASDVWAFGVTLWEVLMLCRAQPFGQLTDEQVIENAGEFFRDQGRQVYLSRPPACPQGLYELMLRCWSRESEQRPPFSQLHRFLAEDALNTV

CNS(=O)(=O)c1ccc(N(C)C)c(Nc2ncnc3cc(OC)c(OC)cc23)c1 [compound 7, 3-((6,7-dimethoxyquinazolin-4-yl)amino)-4-(dimethylamino)-N-methylbenzenesulfonamide]
inhibition at 1 µM (ALK): 10%
inhibition at 1 µM (YANK2): 0%
inhibition at 1 µM (FLT3(D835V)): 91.8%
inhibition at 1 µM (PFTK1): 0%
inhibition at 1 µM (AAK1): 0%
inhibition at 1 µM (FYN): 0%
inhibition at 1 µM (EGFR(E746-A750del)): 25%
inhibition at 1 µM (FLT3(ITD)): 0%
inhibition at 1 µM (MAP4K5): 0%
inhibition at 1 µM (BRAF): 84%
inhibition at 1 µM (IKK-epsilon): 18%
inhibition at 1 µM (PIM3): 0%
inhibition at 1 µM (YSK4): 72%
inhibition at 1 µM (PKMYT1): 0%
inhibition at 1 µM (DDR1): 0%
inhibition at 1 µM (MET(Y1235D)): 33%
inhibition at 1 µM (MAP3K2): 12%
inhibition at 1 µM (PRP4): 24%
inhibition at 1 µM (TBK1): 0%
inhibition at 1 µM (ABL1-nonphosphorylated): 21%
inhibition at 1 µM (CHEK1): 0%
inhibition at 1 µM (RIOK3): 0%
inhibition at 1 µM [1]: 0%
inhibition at 1 µM (TRKA): 22%
